In test [1] the target is T1, Tubulin (Homo sapiens) (UniProt P68371+Q9H4B7+P0DPH7+P68366+Q13509+Q71U36+P04350+Q3ZCM7+P07437+P68363+Q9BQE3+Q6PEY2+Q13885+Q9BVA1+Q9BUF5). As to the kind of experiment: Binding affinity to microtubules, activity expressed as log 1/ID50 of compound/ID50 of paclitaxel. The class given is protein-complex assay.
Test [2] addresses T1, Tubulin (Homo sapiens). In words: Binding affinity to microtubules, activity expressed as ID50 of compound/ID50 of paclitaxel. The test is classed as protein-complex assay.

On to `CC(=O)O[C@H]1C(=O)[C@@]2(C)[C@H]([C@H](OC(=O)c3ccccc3)[C@]3(O)C[C@H](OC(=O)[C@H](O)[C@@H](NC(=O)c4ccccc4)c4ccc(F)cc4)C(C)=C1C3(C)C)[C@]1(OC(C)=O)CO[C@@H]1C[C@@H]2O`, for which the Log 1/ratio at Tubulin (Homo sapiens) [1] is -0.0414. Further, the ID50 ratio on Tubulin (Homo sapiens) [2] worked out at 1.1.
The like results for `CC(=O)O[C@@]12CO[C@@H]1C[C@H](O)[C@@]1(C)C(=O)[C@H](O)C3=C(C)[C@@H](OC(=O)[C@H](O)[C@@H](NC(=O)c4ccccc4)c4ccccc4)C[C@@](O)([C@@H](OC(=O)c4ccccc4)[C@H]21)C3(C)C` were, in that order, -0.114 and 1.3.
`CC(=O)O[C@@]12CO[C@@H]1C[C@H](OC(=O)CN)[C@@]1(C)C(=O)[C@H](OC(=O)CN)C3=C(C)[C@@H](OC(=O)[C@H](O)[C@@H](NC(=O)OC(C)(C)C)c4ccccc4)C[C@@](O)([C@@H](OC(=O)c4ccccc4)[C@H]21)C3(C)C`: the Log 1/ratio on Tubulin (Homo sapiens) [1] is -0.0792. Also, the ID50 ratio on Tubulin (Homo sapiens) [2] came out at 1.2.
Take `CC(=O)O[C@@]12CO[C@@H]1C[C@H](O)[C@@]1(C)C(=O)[C@H](O)C3=C(C)[C@@H](OC(=O)[C@H](O)[C@@H](NC(=O)CCCC(=O)O)c4ccccc4)C[C@@](O)([C@@H](OC(=O)c4ccccc4)[C@H]21)C3(C)C`: the Log 1/ratio on Tubulin (Homo sapiens) [1] came to 0. Besides, on Tubulin (Homo sapiens) [2], the ID50 ratio was determined as 1.
Take `CC(=O)O[C@H]1C(=O)[C@]2(C)[C@@H](OC(=O)[C@H](O)[C@@H](O)[C@H](O)CO)C[C@H]3OC[C@@]3(OC(C)=O)[C@H]2[C@H](OC(=O)c2ccccc2)[C@]2(O)C[C@H](OC(=O)[C@H](O)[C@@H](NC(=O)c3ccccc3)c3ccccc3)C(C)=C1C2(C)C`: on Tubulin (Homo sapiens) [1], the Log 1/ratio was -0.398. Besides, on Tubulin (Homo sapiens) [2], the ID50 ratio was found to be 0.4.
`CC(=O)O[C@H]1C(=O)[C@@]2(C)[C@H]([C@H](OC(=O)c3ccccc3)[C@]3(O)C[C@H](OC(=O)[C@@H](NC(=O)c4ccccc4)[C@H](O)c4ccccc4)C(C)=C1C3(C)C)[C@]1(OC(C)=O)CO[C@@H]1C[C@@H]2O`: the Log 1/ratio at Tubulin (Homo sapiens) [1] is -2.04. In addition, the ID50 ratio on Tubulin (Homo sapiens) [2] worked out at 110.
In the case of `CC(=O)O[C@H]1C(=O)[C@@]2(C)[C@H]([C@H](OC(=O)c3ccccc3)[C@]3(O)C[C@H](OC(=O)[C@H](O)[C@@H](NC(=O)C(C)=O)c4ccccc4)C(C)=C1C3(C)C)[C@]1(OC(C)=O)CO[C@@H]1C[C@@H]2O`, the Log 1/ratio at Tubulin (Homo sapiens) [1] was -0.544. In addition, the ID50 ratio on Tubulin (Homo sapiens) [2] came to 3.5.
Regarding `CC(=O)O[C@@]12CO[C@@H]1C[C@H](O)[C@@]1(C)C(=O)[C@H](O)C3=C(C)[C@@H](OC(=O)[C@H](NC(=O)OC(C)(C)C)[C@@H](O)c4ccccc4)C[C@@](O)([C@@H](OC(=O)c4ccccc4)[C@H]21)C3(C)C`, on Tubulin (Homo sapiens) [1], the Log 1/ratio is -1. Moreover, at Tubulin (Homo sapiens) [2], the ID50 ratio came to 10.
The like results for `CC(=O)O[C@H]1C(=O)[C@@]2(C)[C@H]([C@H](OC(=O)c3ccccc3)[C@]3(O)C[C@H](OC(=O)[C@H](O)[C@@H](NC(=O)c4ccc(Cl)cc4)c4ccccc4)C(C)=C1C3(C)C)[C@]1(OC(C)=O)CO[C@@H]1C[C@@H]2O` were, in that order, -0.38 and 2.4.
Turning to `COc1ccc(C(=O)N[C@@H](c2ccccc2)[C@@H](O)C(=O)O[C@H]2C[C@@]3(O)[C@@H](OC(=O)c4ccccc4)[C@@H]4[C@]5(OC(C)=O)CO[C@@H]5C[C@H](O)[C@@]4(C)C(=O)[C@H](OC(C)=O)C(=C2C)C3(C)C)cc1`, the Log 1/ratio on Tubulin (Homo sapiens) [1] is 0.222. Besides, the ID50 ratio on Tubulin (Homo sapiens) [2] was determined as 0.6.
With `CC(=O)O[C@H]1C(=O)[C@]2(C)[C@@H](OC(=O)[C@H](N)CCC(=O)O)C[C@H]3OC[C@@]3(OC(C)=O)[C@H]2[C@H](OC(=O)c2ccccc2)[C@]2(O)C[C@H](OC(=O)[C@H](O)[C@@H](NC(=O)c3ccccc3)c3ccccc3)C(C)=C1C2(C)C`, the Log 1/ratio on Tubulin (Homo sapiens) [1] was found to be 0. Further, on Tubulin (Homo sapiens) [2], the ID50 ratio came out at 1.
Regarding `CC(=O)O[C@@]12CO[C@@H]1C[C@H](O)[C@@]1(C)C(=O)[C@H](O)C3=C(C)[C@@H](OC(=O)[C@@H](O)[C@@H](NC(=O)c4ccccc4)c4ccccc4)C[C@@](O)([C@@H](OC(=O)c4ccccc4)[C@H]21)C3(C)C`, at Tubulin (Homo sapiens) [1], the Log 1/ratio is -0.114. On Tubulin (Homo sapiens) [2], the ID50 ratio turned out to be 1.3.
Take `CC(=O)O[C@H]1C(=O)[C@@]2(C)[C@H]([C@H](OC(=O)c3ccccc3)[C@]3(O)C[C@H](OC(=O)[C@H](O)[C@@H](NC(=O)c4ccccc4)c4ccccc4)C(C)=C1C3(C)C)[C@]1(OC(C)=O)CO[C@@H]1C[C@@H]2O` (stereo in doubt; 14): on Tubulin (Homo sapiens) [1], the Log 1/ratio came to 0.0969. In addition, on Tubulin (Homo sapiens) [2], the ID50 ratio came out at 0.8.
Regarding `CC(=O)O[C@H]1C(=O)[C@@]2(C)[C@H]([C@H](OC(=O)c3ccccc3)[C@]3(O)C[C@H](OC(=O)[C@H](O)[C@@H](NC(=O)c4ccc(N=[N+]=[N-])cc4)c4ccccc4)C(C)=C1C3(C)C)[C@]1(OC(C)=O)CO[C@@H]1C[C@@H]2O`, at Tubulin (Homo sapiens) [2], the ID50 ratio stood at 2.
For the compound `CC(=O)O[C@@]12CO[C@@H]1C[C@H](O)[C@@]1(C)C(=O)[C@H](O)C3=C(C)[C@@H](OC(=O)C[C@H](NC(=O)OC(C)(C)C)c4ccccc4)C[C@@](O)([C@@H](OC(=O)c4ccccc4)[C@H]21)C3(C)C`, at Tubulin (Homo sapiens) [2], the ID50 ratio amounted to 2.3.
`CC(=O)O[C@H]1C(=O)[C@@]2(C)[C@H]([C@H](OC(=O)c3ccccc3)[C@]3(O)C[C@H](OC(=O)[C@H](C)O)C(C)=C1C3(C)C)[C@]1(OC(C)=O)CO[C@@H]1C[C@@H]2O`: the ID50 ratio on Tubulin (Homo sapiens) [2] came out at 6.4.
In the case of `CC(=O)O[C@H]1C(=O)[C@@]2(C)[C@H]([C@H](OC(=O)c3ccccc3)[C@]3(O)C[C@H](OC(=O)[C@H](O)[C@@H](NC(=O)c4ccc(F)cc4)c4ccccc4)C(C)=C1C3(C)C)[C@]1(OC(C)=O)CO[C@@H]1C[C@@H]2O`, at Tubulin (Homo sapiens) [2], the ID50 ratio came to 1.2.
`CC(=O)O[C@H]1C(=O)[C@@]2(C)[C@H]([C@H](OC(=O)c3ccccc3)[C@]3(O)C[C@H](OC(=O)[C@H](O)[C@@H](NC(=O)C(C)(C)C)c4ccccc4)C(C)=C1C3(C)C)[C@]1(OC(C)=O)CO[C@@H]1C[C@@H]2O`: the ID50 ratio at Tubulin (Homo sapiens) [2] amounted to 2.6.
Take `C/C=C(\C)C(=O)N[C@@H](c1ccccc1)[C@@H](O)C(=O)O[C@H]1C[C@@]2(O)[C@@H](OC(=O)c3ccccc3)[C@@H]3[C@]4(OC(C)=O)CO[C@@H]4C[C@H](OC(=O)[C@H](O)[C@@H](O)[C@H](O)CO)[C@@]3(C)C(=O)[C@H](OC(C)=O)C(=C1C)C2(C)C`: the ID50 ratio at Tubulin (Homo sapiens) [2] came to 0.5.
Turning to `CC(=O)O[C@H]1C(=O)[C@@]2(C)[C@H]([C@H](OC(=O)c3ccccc3)[C@]3(O)C[C@H](OC(=O)[C@H](O)[C@@H](NC(=O)c4ccccc4)c4ccco4)C(C)=C1C3(C)C)[C@]1(OC(C)=O)CO[C@@H]1C[C@@H]2O`, the ID50 ratio at Tubulin (Homo sapiens) [2] was 0.9.
Regarding `CC(=O)O[C@H]1C(=O)[C@@]2(C)[C@H]([C@H](OC(=O)c3ccccc3)[C@]3(O)C[C@H](OC(=O)[C@H](O)[C@@H](NC(=O)c4ccccc4)c4ccoc4)C(C)=C1C3(C)C)[C@]1(OC(C)=O)CO[C@@H]1C[C@@H]2O`, the ID50 ratio at Tubulin (Homo sapiens) [2] came out at 0.9.
Consider `CC(=O)O[C@H]1C(=O)[C@@]2(C)[C@H]([C@H](OC(=O)c3ccccc3)[C@]3(O)C[C@H](OC(=O)[C@H](O)[C@@H](NC(=O)c4ccc(Cl)c(Cl)c4)c4ccccc4)C(C)=C1C3(C)C)[C@]1(OC(C)=O)CO[C@@H]1C[C@@H]2O`, for which the ID50 ratio on Tubulin (Homo sapiens) [2] was found to be 2.1.
With `CC(=O)O[C@H]1C(=O)[C@@]2(C)[C@H]([C@H](OC(=O)c3ccccc3)[C@]3(O)C[C@H](OC(=O)[C@H](O)[C@@H](NC(=O)c4ccccc4)c4cccnc4)C(C)=C1C3(C)C)[C@]1(OC(C)=O)CO[C@@H]1C[C@@H]2O`, on Tubulin (Homo sapiens) [2], the ID50 ratio amounted to 0.5.
On to `CCCCCC(=O)N[C@@H](c1ccccc1)[C@@H](O)C(=O)O[C@H]1C[C@@]2(O)[C@@H](OC(=O)c3ccccc3)[C@@H]3[C@]4(OC(C)=O)CO[C@@H]4C[C@H](O)[C@@]3(C)C(=O)[C@H](OC(C)=O)C(=C1C)C2(C)C`, for which the ID50 ratio at Tubulin (Homo sapiens) [2] came out at 0.4.
Same read-out and setting: then `C/C=C(\C)C(=O)N[C@@H](c1ccccc1)[C@@H](O)C(=O)O[C@H]1C[C@@]2(O)[C@@H](OC(=O)c3ccccc3)[C@@H]3[C@]4(OC(C)=O)CO[C@@H]4C[C@H](O)[C@@]3(C)C(=O)[C@H](O)C(=C1C)C2(C)C`, with 5; and `CC(=O)O[C@H]1C(=O)[C@]2(C)[C@@H](OC(=O)c3ccc(C(=[N+]=[N-])C(F)(F)F)cc3)C[C@H]3OC[C@@]3(OC(C)=O)[C@H]2[C@H](OC(=O)c2ccccc2)[C@]2(O)C[C@H](OC(=O)[C@H](O)[C@@H](NC(=O)c3ccccc3)c3ccccc3)C(C)=C1C2(C)C`, with 3.4; and `CC(=O)O[C@H]1C(=O)[C@@]2(C)[C@H]([C@H](OC(=O)c3ccccc3)[C@]3(O)C[C@H](OC(=O)[C@H](O)[C@@H](NC(=O)c4ccc([N+](=O)[O-])cc4)c4ccccc4)C(C)=C1C3(C)C)[C@]1(OC(C)=O)CO[C@@H]1C[C@@H]2O`, with 2.
In the case of `CC(=O)O[C@@]12CO[C@@H]1C[C@H](O)[C@@]1(C)C(=O)CC3=C(C)[C@@H](OC(=O)[C@H](O)[C@@H](NC(=O)c4ccccc4)c4ccccc4)C[C@@](O)([C@@H](OC(=O)c4ccccc4)[C@H]21)C3(C)C` (stereo in doubt; 17), the ID50 ratio on Tubulin (Homo sapiens) [2] is 143.
Consider `CC(=O)O[C@H]1C(=O)[C@@]2(C)[C@H]([C@H](OC(=O)c3ccccc3)[C@]3(O)C[C@H](OC(=O)[C@H](O)[C@@H](NC(=O)/C(C)=N/NC(=O)OC(C)(C)C)c4ccccc4)C(C)=C1C3(C)C)[C@]1(OC(C)=O)CO[C@@H]1C[C@@H]2O`, for which the ID50 ratio at Tubulin (Homo sapiens) [2] stood at 14.1.
For the compound `CC(=O)O[C@@]12CO[C@@H]1C[C@H](OC(=O)CCCC(=O)O)[C@@]1(C)C(=O)[C@H](OC(=O)CCCC(=O)O)C3=C(C)[C@@H](OC(=O)[C@H](O)[C@@H](NC(=O)OC(C)(C)C)c4ccccc4)C[C@@](O)([C@@H](OC(=O)c4ccccc4)[C@H]21)C3(C)C`, the ID50 ratio at Tubulin (Homo sapiens) [2] amounted to 2.
In the case of `CC(=O)O[C@H]1C(=O)[C@@]2(C)[C@H]([C@H](OC(=O)c3ccccc3)[C@]3(O)C[C@H](OC(=O)[C@H](O)[C@@H](NC(=O)CC(C)C)c4ccccc4)C(C)=C1C3(C)C)[C@]1(OC(C)=O)CO[C@@H]1C[C@@H]2O`, the ID50 ratio on Tubulin (Homo sapiens) [2] turned out to be 1.2.
For the compound `CC(=O)O[C@H]1C(=O)[C@@]2(C)[C@H]([C@H](OC(=O)c3ccccc3)[C@]3(O)C[C@H](OC(=O)[C@H](O)[C@@H](NC(=O)c4ccco4)c4ccccc4)C(C)=C1C3(C)C)[C@]1(OC(C)=O)CO[C@@H]1C[C@@H]2O`, the ID50 ratio on Tubulin (Homo sapiens) [2] amounted to 0.8.

The values above are taken from ChEMBL document CHEMBL1127973, “A comparative molecular field analysis derived model of the binding of taxol analogues to microtubules” (Bioorg Med Chem Lett, 1994).
